Source: ChEMBL document CHEMBL6109147, “Discovery of Potent STING Inhibitors Bearing a Difluorobenzodioxol Structural Motif as Potent Anti-Inflammatory Agents” (J Med Chem, 2025)
Active and inactive are the calls of the source. The rule behind the calls is not given here.

Columns and labels:
[1] = molecular target: Stimulator of interferon genes protein (Homo sapiens) (UniProt Q86WV6); assay: Binding affinity to Flag-tagged human STING expressed in HEK293T cells assessed as labelling measured after 1 hr by TAMRA-N3 fluorescent assay; type: cell-based
Chain of Stimulator of interferon genes protein (Homo sapiens) (Q86WV6 whole entry): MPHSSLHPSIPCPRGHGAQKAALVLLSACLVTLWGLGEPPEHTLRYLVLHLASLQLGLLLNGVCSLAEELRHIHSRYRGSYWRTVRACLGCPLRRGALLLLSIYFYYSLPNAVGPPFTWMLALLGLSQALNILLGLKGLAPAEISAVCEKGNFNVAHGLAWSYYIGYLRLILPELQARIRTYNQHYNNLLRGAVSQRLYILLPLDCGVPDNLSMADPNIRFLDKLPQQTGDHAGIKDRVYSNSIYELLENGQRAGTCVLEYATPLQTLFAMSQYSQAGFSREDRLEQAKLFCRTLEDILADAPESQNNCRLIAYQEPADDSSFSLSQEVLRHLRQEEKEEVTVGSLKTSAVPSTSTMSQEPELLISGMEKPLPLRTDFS

[2] = molecular target: Stimulator of interferon genes protein (Homo sapiens) (UniProt Q86WV6); assay: Binding affinity to Flag-tagged human STING expressed in HEK293T cells assessed as labelling pretreated for 15 mins with (E)-1-(5-(3-Cyanoprop-1-en-1-yl)-1H-indol-3-yl)-3-(2,2-difluorobenzo[d][1,3]dioxol-5-yl)urea followed by treated at 1 uM for 1 hr by TAMRA-N3 fluorescent assay; type: cell-based; settings: time 75.0 min
[3] = molecular target: T1, Stimulator of interferon genes protein (Mus musculus, UniProt Q3TBT3); assay: Inhibition of mouse STING in mouse RAW cells assessed as secreted luciferase reporter of interferon stimulated gene (ISG) measured after 24 hrs incubation by QUANTI-Luc detection assay; type: cell-based
T1 sequence (Q3TBT3 whole entry): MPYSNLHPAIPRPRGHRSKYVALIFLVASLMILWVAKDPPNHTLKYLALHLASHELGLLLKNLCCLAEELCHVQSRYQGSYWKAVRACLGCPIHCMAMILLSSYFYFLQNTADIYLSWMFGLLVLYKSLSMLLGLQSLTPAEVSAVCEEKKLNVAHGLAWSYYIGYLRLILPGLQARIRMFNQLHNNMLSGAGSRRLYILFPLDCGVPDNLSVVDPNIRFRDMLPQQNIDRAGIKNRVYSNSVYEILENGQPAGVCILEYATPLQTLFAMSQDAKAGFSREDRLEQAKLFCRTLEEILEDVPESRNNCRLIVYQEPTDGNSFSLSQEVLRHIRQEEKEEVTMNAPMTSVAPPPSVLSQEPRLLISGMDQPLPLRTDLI

[4] = Metabolic stability in mouse liver microsomes assessed as microsomal intrinsic clearance; type: ADME, Microsome; settings: read-out: CLH
[5] = Clearance in Sprague-Dawley rat at 1 mg/kg, iv; type: ADME, organism-based; settings: in vivo
Mus musculus [6] = assay: Anti-inflammatory activity against MSA-2 induced C57BL/6 mouse inflammation model assessed as inhibition of MSA-2 induced IL-6 mRNA expression in kidney at 10 mg/kg, ip pre-treated for 1 hr followed by stimulated with MSA-2 for 4 hrs by real-time PCR analysis; type: functional, organism-based; settings: time 5.0 hrs
HEK293 = assay: Protection of Cisplatin induced apoptosis in human HEK293 cells assessed as apoptotic cells at 10 uM measured after 72 hrs by flow cytometry; type: functional, cell-based
[7] = Volume of distribution at steady state in Sprague-Dawley rat at 1 mg/kg, iv; type: ADME, organism-based; settings: in vivo
[8] = MRT (0 to infinity) in Sprague-Dawley rat at 1 mg/kg, iv; type: ADME, organism-based; settings: in vivo
Mus musculus [9] = assay: Anti-inflammatory activity against MSA-2 induced C57BL/6 mouse inflammation model assessed as inhibition of MSA-2 induced Cxcl-10 mRNA expression in kidney at 10 mg/kg, ip pre-treated for 1 hr followed by stimulated with MSA-2 for 4 hrs by real-time PCR analysis; type: functional, organism-based; settings: time 5.0 hrs
[10] = Half life in Sprague-Dawley rat at 1 mg/kg, iv; type: ADME, organism-based; settings: in vivo
Mus musculus [11] = assay: Anti-inflammatory activity against MSA-2 induced C57BL/6 mouse inflammation model assessed as inhibition of MSA-2 induced IL-6 level in kidney at 10 mg/kg, ip pre-treated for 1 hr followed by stimulated with MSA-2 for 4 hrs by ELISA; type: functional, organism-based; settings: time 5.0 hrs
Mus musculus [12] = assay: Anti-inflammatory activity against MSA-2 induced C57BL/6 mouse inflammation model assessed as inhibition of MSA-2 induced TNF-alpha mRNA expression in kidney at 10 mg/kg, ip pre-treated for 1 hr followed by stimulated with MSA-2 for 4 hrs by real-time PCR analysis; type: functional, organism-based; settings: time 5.0 hrs
Mus musculus [13] = assay: Anti-inflammatory activity against MSA-2 induced C57BL/6 mouse inflammation model assessed as inhibition of MSA-2 induced IL-6 level in plasma at 10 mg/kg, ip pre-treated for 1 hr followed by stimulated with MSA-2 for 4 hrs by ELISA; type: functional, organism-based; settings: time 5.0 hrs
Mus musculus [14] = assay: Anti-inflammatory activity against MSA-2 induced C57BL/6 mouse inflammation model assessed as inhibition of MSA-2 induced Isg56 RNA expression in kidney at 10 mg/kg, ip pre-treated for 1 hr followed by stimulated with MSA-2 for 4 hrs by real-time PCR analysis; type: functional, organism-based; settings: time 5.0 hrs
[15] = Metabolic stability in rat liver microsomes assessed as half life; type: ADME, Microsome
[16] = Metabolic stability in human liver microsomes assessed as microsomal intrinsic clearance; type: ADME, Microsome; settings: read-out: CLH
[17] = Metabolic stability in rat liver microsomes assessed as microsomal intrinsic clearance; type: ADME, Microsome; settings: read-out: CLH
[18] = Metabolic stability in human liver microsomes assessed as half life; type: ADME, Microsome
[19] = Metabolic stability in mouse liver microsomes assessed as liver intrinsic clearance; type: ADME, Microsome
[20] = AUC (0 to infinity) in Sprague-Dawley rat at 1 mg/kg, iv; type: ADME, organism-based; settings: in vivo
[21] = Metabolic stability in rat liver microsomes assessed as liver intrinsic clearance; type: ADME, Microsome
[22] = Metabolic stability in mouse liver microsomes assessed as half life; type: ADME, Microsome
Mus musculus [23] = assay: Anti-inflammatory activity against MSA-2 induced C57BL/6 mouse inflammation model assessed as inhibition of MSA-2 induced Isg15 mRNA expression in kidney at 10 mg/kg, ip pre-treated for 1 hr followed by stimulated with MSA-2 for 4 hrs by real-time PCR analysis; type: functional, organism-based; settings: time 5.0 hrs
[24] = Metabolic stability in human liver microsomes assessed as liver intrinsic clearance; type: ADME, Microsome
Mus musculus [25] = assay: Anti-inflammatory activity against MSA-2 induced C57BL/6 mouse inflammation model assessed as inhibition of MSA-2 induced IP-10 level in plasma at 10 mg/kg, ip pre-treated for 1 hr followed by stimulated with MSA-2 for 4 hrs by ELISA; type: functional, organism-based; settings: time 5.0 hrs
Mus musculus [26] = assay: Anti-inflammatory activity against MSA-2 induced C57BL/6 mouse inflammation model assessed as inhibition of MSA-2 induced IP-10 level in kidney at 10 mg/kg, ip pre-treated for 1 hr followed by stimulated with MSA-2 for 4 hrs by ELISA; type: functional, organism-based; settings: time 5.0 hrs
[27] = Inhibition of intracellular DNA induced Ifnb mRNA expression in human IMR-90 cells measured after 6 hrs by PCR assay; settings: IMR-90, 6 h

## C#Cc1ccc2[nH]cc(NC(=O)Nc3ccc4c(c3)OC(F)(F)O4)c2c1
[1]
  Activity: Dose-dependent-effect
[2]
  Activity: inactive
[3]
  IC50: 5450 nM

## Fc1ccc2[nH]cc(Nc3nc4cc(C5CCCC5)ccc4[nH]3)c2c1
[3]
  IC50: 210 nM

## O=C(Nc1ccc2c(c1)OC(F)(F)O2)Nc1c[nH]c2ccccc12
[3]
  IC50: 407 nM

## O=C(Nc1cccc2c1OC(F)(F)O2)Nc1c[nH]c2ccccc12
[3]
  IC50: 457 nM

## O=C(Nc1ccc2c(c1)OC(F)(F)O2)Nc1c[nH]c2ccc(Br)cc12
[3]
  IC50: 776 nM

## CCc1ccc(NC(=O)Nc2c[nH]c3ccccc23)cc1
[4]
  microsomal CLint: 220 µL/min/mg
[5]
  clearance: 144 mL/min/kg
Mus musculus [6]
  inhibition: Active
HEK293
  Activity: Active
[7]; Sprague-Dawley, read-out: Vdss
  Vd: 1.94 L/kg
[8]; Sprague-Dawley
  MRT inf: 12 min
Mus musculus [9]
  inhibition: Active
[10]
  half-life: 9.6 min
Mus musculus [11]
  inhibition: Active
Mus musculus [12]
  inhibition: Active
Mus musculus [13]
  inhibition: Active
Mus musculus [14]
  inhibition: Active
[15]
  half-life: 1.02 min
[16]
  microsomal CLint: 115 µL/min/mg
[17]
  microsomal CLint: 1360 µL/min/mg
[18]
  half-life: 12.1 min
[19]
  CLH: 873 µL/min/mg
[20]
  AUC(0-inf): 116 ng·h/mL
[21]
  CLH: 2448 µL/min/mg
[22]
  half-life: 6.29 min
Mus musculus [23]
  inhibition: Active
[24]
  CLH: 103 µL/min/mg
Mus musculus [25]
  inhibition: Active
Mus musculus [26]
  inhibition: Active

## Fc1ccc2[nH]cc(Nc3nc4cc5c(cc4[nH]3)OC(F)(F)O5)c2c1
[3]
  IC50: 229 nM

## Fc1cnc2[nH]cc(Nc3nc4cc(C5CCCC5)ccc4[nH]3)c2c1
[3]
  IC50: 52.3 nM
[7]; iv, 1 mg/kg
  Vdss: 14.04 L/kg
[8]; iv, 1 mg/kg
  MRT: 16.2 min
[10]
  half-life: 25.8 min
[20]
  AUC(0-inf): 43.8 ng·h/mL

## O=C(Nc1ccc2c(c1)OC(F)(F)O2)Nc1c[nH]c2ccc(Cl)cc12
[3]
  IC50: 815 nM

## CC[C@@H]1NC(=O)[C@@H]2[C@H](Cl)[C@H](Cl)CN2C(=O)[C@H](CC)NC(=O)C[C@H](c2ccccc2)NC(=O)[C@H](CO)NC1=O
[27]
  IC50: 10800 nM

## Fc1cc2[nH]cc(Nc3nc4cc(C5CCCC5)ccc4[nH]3)c2cc1F
[3]
  IC50: 305 nM
